One assay deals with Pseudomonas aeruginosa. As to the kind of experiment: Antibacterial activity against Pseudomonas aeruginosa ATCC 254992 assessed as growth inhibition by CLSI broth microdilution method. Format: functional. A general note: Dilution methods test growth across graded concentrations, often in twofold steps.
The next assay concerns Staphylococcus aureus. Kind of assay: Antibacterial activity against Staphylococcus aureus NRRL B-767 assessed as growth inhibition by CLSI broth microdilution method. Format: functional.
The next assay relates to Enterococcus faecalis. As to the kind of experiment: Antibacterial activity against Enterococcus faecalis ATCC 29212 assessed as growth inhibition by CLSI broth microdilution method. The class given is functional.
Another assay has as its system Escherichia coli. Kind of assay: Antibacterial activity against Escherichia coli ATCC 25922 assessed as growth inhibition by CLSI broth microdilution method. Format: functional.
The next assay concerns Candida albicans. Kind of assay: Antifungal activity against Candida albicans assessed as growth inhibition by CLSI broth microdilution method. The class given is functional.
Assay [1] deals with HT-29. As to the kind of experiment: Inhibition of nuclear DNA synthesis in Homo sapiens (human) HT-29 cells assessed as decrease in incorporation of bromo deoxyuridine during S phase of cell cycle after 24 to 48 hr by colorimetric method. Format: cell-based.
In assay [2] the test system is C6. As to the kind of experiment: Inhibition of nuclear DNA synthesis in Rattus norvegicus (rat) C6 cells assessed as decrease in incorporation of bromo deoxyuridine during S phase of cell cycle after 24 to 48 hr by colorimetric method. The class given is cell-based.
Assay [3] concerns C6. As to the kind of experiment: Cytotoxicity against Rattus norvegicus (rat) C6 cells assessed as cell viability after 24 hr by MTT assay. Format: functional, cell-based. The note with it: C6, 24 h.
In assay [4] the test system is HT-29. As to the kind of experiment: Cytotoxicity against Homo sapiens (human) HT-29 cells assessed as cell viability after 24 hr by MTT assay. The class given is functional, cell-based. The note with it: HT-29, 24 h. (Tetrazolium dyes change colour on reduction, which living cells bring about.)
Assay [5] has as its system C6. Kind of assay: Inhibition of nuclear DNA synthesis in Rattus norvegicus (rat) C6 cells assessed as decrease in incorporation of bromo deoxyuridine during S phase of cell cycle at 3.2 uM after 24 hr by colorimetric method relative to untreated control. The class given is cell-based.
Assay [6] deals with C6. Kind of assay: Inhibition of nuclear DNA synthesis in Rattus norvegicus (rat) C6 cells assessed as decrease in incorporation of bromo deoxyuridine during S phase of cell cycle at 0.8 to 3.2 uM by colorimetric method. Format: cell-based. The note with it: TDE = time-dependent effect.
The test system of assay [7] is C6. Kind of assay: Inhibition of nuclear DNA synthesis in Rattus norvegicus (rat) C6 cells assessed as decrease in incorporation of bromo deoxyuridine during S phase of cell cycle at 3.2 uM after 48 hr by colorimetric method relative to untreated control. Format: cell-based.
Assay [8] deals with HT-29. As to the kind of experiment: Inhibition of nuclear DNA synthesis in Homo sapiens (human) HT-29 cells assessed as decrease in incorporation of bromo deoxyuridine during S phase of cell cycle at 3.2 uM after 48 hr by colorimetric method relative to untreated control. The class given is cell-based.
Assay [9] concerns HT-29. Kind of assay: Inhibition of nuclear DNA synthesis in Homo sapiens (human) HT-29 cells assessed as decrease in incorporation of bromo deoxyuridine during S phase of cell cycle at 0.8 to 3.2 uM by colorimetric method. The class given is cell-based. The note with it: TDE = time-dependent effect.

The term MIC denotes the lowest concentration that inhibits growth of the organism. As usually defined, the inhibition is the relative decrease from the control value, in per cent. What is called pIC50 is the negative decadic logarithm of the IC50, by convention in mol/L.

pIC50: −log10 of the molar value. Converted amounts (≈) assume the structure as drawn. Some results are limits rather than exact numbers.

Regarding `Cc1cc(NC(=O)CSc2ccccc2)no1`, the MIC worked out at 200 µg/mL (≈ 805 µM) with Pseudomonas aeruginosa; 200 µg/mL (≈ 805 µM) in the assay on Staphylococcus aureus; 400 µg/mL (≈ 1610 µM) with Enterococcus faecalis; 400 µg/mL (≈ 1610 µM) in the assay with Escherichia coli; 200 µg/mL (≈ 805 µM) in the assay with Candida albicans.

In the case of `Cc1cc(NC(=O)CSc2nc3ccccc3[nH]2)no1`, the inhibition result with HT-29 [1] is “Dose-dependent effect”; with C6 [2], “Dose-dependent effect”; in the assay on C6 [5], over 50%; with C6 [6], “tde”; with C6 [7], 70%; with HT-29 [8], 80%. Further, the inhibition entry with HT-29 [9] is “tde”. In addition, the negative logarithm of the IC50 (pIC50) in the assay with C6 [3] is 7.00; with HT-29 [4], 7.05. The MIC worked out at 200 µg/mL (≈ 694 µM) in the assay on Pseudomonas aeruginosa; 200 µg/mL (≈ 694 µM) in the assay on Staphylococcus aureus; 400 µg/mL (≈ 1390 µM) with Enterococcus faecalis; 400 µg/mL (≈ 1390 µM) with Escherichia coli; 200 µg/mL (≈ 694 µM) with Candida albicans.

On to `Cc1cc(NC(=O)CSc2nc[nH]n2)no1`, for which the pIC50 was 5.50 in the assay with C6 [3] and 5.95 in the assay with HT-29 [4]. The minimum inhibitory concentration (MIC) stood at 100 µg/mL (≈ 418 µM) in the assay on Pseudomonas aeruginosa; 200 µg/mL (≈ 836 µM) in the assay with Staphylococcus aureus; 400 µg/mL (≈ 1670 µM) in the assay on Enterococcus faecalis; 400 µg/mL (≈ 1670 µM) in the assay with Escherichia coli; 100 µg/mL (≈ 418 µM) in the assay on Candida albicans.

Consider `CC(=O)N1CCN(c2ccc(OCC3COC(Cn4ccnc4)(c4ccc(Cl)cc4Cl)O3)cc2)CC1` (stereo not given) [KETOCONAZOLE], for which the MIC with Candida albicans stood at 100 µg/mL (≈ 188 µM).

Turning to `Cc1cc(NC(=O)CSc2nncn2C)no1`, the figures for the negative-log IC50 (pIC50) in the assay with C6 [3] and in the assay on HT-29 [4] were 5.83 and 5.99, respectively. Further, the minimal inhibitory concentration (MIC) is 100 µg/mL (≈ 395 µM) in the assay with Pseudomonas aeruginosa; 200 µg/mL (≈ 790 µM) with Staphylococcus aureus; 400 µg/mL (≈ 1580 µM) in the assay with Enterococcus faecalis; 400 µg/mL (≈ 1580 µM) in the assay with Escherichia coli; 100 µg/mL (≈ 395 µM) in the assay with Candida albicans.

As for `Cc1cc(NC(=O)CSc2nnnn2-c2ccccc2)no1`, the negative-log IC50 (pIC50) in the assay on C6 [3] is 6.19; with HT-29 [4], 6.13. Besides, the minimum inhibitory concentration (MIC) in the assay with Pseudomonas aeruginosa was found to be 100 µg/mL (≈ 316 µM); with Staphylococcus aureus, 200 µg/mL (≈ 632 µM); with Enterococcus faecalis, 400 µg/mL (≈ 1260 µM); in the assay on Escherichia coli, 400 µg/mL (≈ 1260 µM); in the assay with Candida albicans, 100 µg/mL (≈ 316 µM).

As for `Cc1cc(NC(=O)CSc2nccn2C)no1`, the pIC50 is 5.85 in the assay on C6 [3] and 5.95 in the assay with HT-29 [4]. Besides, the minimal inhibitory concentration (MIC) stood at 200 µg/mL (≈ 793 µM) in the assay on Pseudomonas aeruginosa; 200 µg/mL (≈ 793 µM) in the assay on Staphylococcus aureus; 400 µg/mL (≈ 1590 µM) with Enterococcus faecalis; 400 µg/mL (≈ 1590 µM) with Escherichia coli; 100 µg/mL (≈ 396 µM) in the assay on Candida albicans.

`Cc1cc(NC(=O)CSc2nnnn2C)no1`: the negative-log IC50 (pIC50) in the assay on C6 [3] is 5.92. Besides, the MIC turned out to be 100 µg/mL (≈ 393 µM) in the assay with Pseudomonas aeruginosa; 200 µg/mL (≈ 787 µM) in the assay on Staphylococcus aureus; 400 µg/mL (≈ 1570 µM) in the assay with Enterococcus faecalis; 400 µg/mL (≈ 1570 µM) with Escherichia coli; 100 µg/mL (≈ 393 µM) in the assay on Candida albicans.

For `Cc1cc(NC(=O)CSc2nc3ccccc3o2)no1`, the inhibition result was “Dose-dependent effect” in the assay with HT-29 [1]; “Dose-dependent effect” in the assay with C6 [2]; over 50% in the assay on C6 [5]; “tde” in the assay with C6 [6]; 70% in the assay with C6 [7]; 80% with HT-29 [8]. The inhibition result in the assay on HT-29 [9] is “tde”. Besides, the pIC50 in the assay with C6 [3] was 6.36; in the assay on HT-29 [4], 6.66. In addition, the MIC in the assay on Pseudomonas aeruginosa came out at 200 µg/mL (≈ 691 µM); with Staphylococcus aureus, 200 µg/mL (≈ 691 µM); in the assay with Enterococcus faecalis it was 400 µg/mL (≈ 1380 µM); with Escherichia coli, 400 µg/mL (≈ 1380 µM); with Candida albicans, 200 µg/mL (≈ 691 µM).

In the case of `O=C(N[C@H](CO)[C@H](O)c1ccc([N+](=O)[O-])cc1)C(Cl)Cl` [CHLORAMPHENICOL], the MIC in the assay on Pseudomonas aeruginosa was determined as 50 µg/mL (≈ 155 µM); in the assay with Staphylococcus aureus, 50 µg/mL (≈ 155 µM); in the assay with Enterococcus faecalis, 100 µg/mL (≈ 309 µM); with Escherichia coli, 100 µg/mL (≈ 309 µM).

On to `Cc1cc(NC(=O)CSc2nc3ccccc3s2)no1`, for which the inhibition entry was “Dose-dependent effect” in the assay with HT-29 [1], “Dose-dependent effect” with C6 [2], “tde” in the assay with C6 [6] and “tde” in the assay on HT-29 [9]. Besides, the pIC50 with C6 [3] is 6.68; in the assay on HT-29 [4], 6.40. Besides, the MIC with Pseudomonas aeruginosa stood at 200 µg/mL (≈ 655 µM); with Staphylococcus aureus, 200 µg/mL (≈ 655 µM); in the assay with Enterococcus faecalis, 400 µg/mL (≈ 1310 µM); with Escherichia coli, 400 µg/mL (≈ 1310 µM); with Candida albicans, 200 µg/mL (≈ 655 µM).

With `Cc1cc(NC(=O)CSc2nnc(C)s2)no1`, the pIC50 is 6.24 in the assay with C6 [3] and 6.17 in the assay with HT-29 [4]. The MIC in the assay with Pseudomonas aeruginosa was 200 µg/mL (≈ 740 µM); in the assay on Staphylococcus aureus it was 200 µg/mL (≈ 740 µM); with Enterococcus faecalis, 400 µg/mL (≈ 1480 µM); in the assay on Escherichia coli, 400 µg/mL (≈ 1480 µM); in the assay on Candida albicans it was 100 µg/mL (≈ 370 µM).

The record behind these values is ChEMBL document CHEMBL3045330, “Antimicrobial and anticancer effects of some 2-(substitutedsulfanyl)-N-(5-methyl-isoxazol-3-yl)acetamide derivatives” (Med Chem Res, 2013).
